Measured values: patent US20080161232A1, “C5a Receptor Antagonist” (JERINI AG, priority 2005, published 2008)
Starred links: 1 amine or outer side, 2 acyl side, 3 side chain; linkers in the order of their positions; H or OH if unused. Positions of bridges follow the written chain, without caps; N, C: chain ends. Non-standard residues stand in square brackets, D forms with d. Residues, ends and D or L forms follow the SMILES beside them. *: point of attachment. N(3,4-(MeO)2phenethyl)Gly = COc1ccc(CCNCC(=O)O)cc1OC; Dihydroorotyl(S) = O=C1C[C@@H](C(=O)*)NC(=O)N1; Decanoyl(3,6,9-trioxa) = COCCOCCOCC(=O)*; Phe(3-Cl) = N[C@@H](Cc1cccc(Cl)c1)C(=O)O; Phe(3-OMe) = COc1cccc(C[C@H](N)C(=O)O)c1; Phe(4-Cl) = N[C@@H](Cc1ccc(Cl)cc1)C(=O)O; Phe(4-NH2) = Nc1ccc(C[C@H](N)C(=O)O)cc1; Phe(4-F) = N[C@@H](Cc1ccc(F)cc1)C(=O)O; Bta = N[C@@H](Cc1csc2ccccc12)C(=O)O; Hyp = O=C(O)[C@@H]1C[C@@H](O)CN1; d(hLeu) = CC(C)CC[C@@H](N)C(=O)O; hCit = NC(=O)NCCCC[C@H](N)C(=O)O; Cha = N[C@@H](CC1CCCCC1)C(=O)O; Cit = NC(=O)NCCC[C@H](N)C(=O)O; dCha = N[C@H](CC1CCCCC1)C(=O)O; dChg = N[C@@H](C(=O)O)C1CCCCC1; NHCH2CH(OH)CH2OH = OCC(O)CN*; Nicotinoyl = O=C(c1cccnc1)*; Nle = CCCC[C@H](N)C(=O)O; Orn = NCCC[C@H](N)C(=O)O; Aze = O=C(O)[C@@H]1CCN1; CO = O=C([*:1])[*:2]

Target: T1, human C5aR(CD88) (Homo sapiens, UniProt P21730)
T1 construct: expressed in transfected cells; host or cells: rat basophilic leukemia cells (RBL)
T1 sequence (P21730 1-350): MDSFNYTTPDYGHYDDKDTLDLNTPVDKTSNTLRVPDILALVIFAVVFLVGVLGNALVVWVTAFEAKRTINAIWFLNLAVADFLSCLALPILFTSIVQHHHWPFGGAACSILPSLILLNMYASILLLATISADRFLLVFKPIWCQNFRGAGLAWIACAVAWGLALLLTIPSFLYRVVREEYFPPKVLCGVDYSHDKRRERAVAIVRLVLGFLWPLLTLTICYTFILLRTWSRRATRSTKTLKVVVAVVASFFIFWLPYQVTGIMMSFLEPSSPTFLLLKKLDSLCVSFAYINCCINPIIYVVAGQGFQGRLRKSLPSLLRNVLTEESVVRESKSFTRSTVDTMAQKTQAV
Assay: Determination of the IC50 value in an enzyme release assay (functional assay, antagonistic activity)
Format: cell-based
Conditions: antagonistic activity; IC50 group in enzyme release assay, RBL cells expressing human C5aR(CD88); read-out: activity (group)

Compound | IC50
CSCC[C@@H]1NC(=O)[C@H](Cc2c[nH]c3ccccc23)NC(=O)[C@@H](CC2CCCCC2)NC(=O)[C@@H]2CCCN2C(=O)[C@@H](NC(=O)[C@H](Cc2ccccc2)NC(C)=O)CCCNC1=O [Compound 29, Ac-Phe-[Orn-Pro-cha-Trp-Met]] (Ac-F[Orn]P[dCha]WM; lactam 2-C) | 50 to 200 nM
CC(=O)N[C@@H](Cc1ccccc1)C(=O)N[C@@H](CCCN)C(=O)N1CCC[C@H]1C(=O)N[C@H](CCC(C)C)C(=O)N[C@@H](Cc1csc2ccccc12)C(=O)N[C@H](Cc1ccccc1)C(=O)O [Compound 281, Ac-Phe-Orn-Pro-hle-Bta-phe-OH] (Ac-F[Orn]P[d(hLeu)][Bta][dF]-OH) | 50 to 200 nM
CC(C)CC[C@@H](NC(=O)[C@@H]1CCCN1C(=O)[C@H](CCCNC(N)=O)NC(=O)[C@H](Cc1ccccc1)NC(=O)[C@@H]1CC(=O)NC(=O)N1)C(=O)N[C@@H](Cc1ccc(F)cc1)C(=O)N[C@@H](Cc1ccccc1)C(N)=O [Compound 348, Hoo-Phe-Cit-Pro-hle-Pff-Phe-NH2] ({Dihydroorotyl(S)}-F[Cit]P[d(hLeu)][Phe(4-F)]F-NH2) | 50 to 200 nM
COc1cccc(C[C@H](NC(=O)[C@H](Cc2ccc(F)cc2)NC(=O)[C@@H](CCC(C)C)NC(=O)[C@@H]2CCCN2C(=O)[C@H](CCCN)NC(=O)[C@H](Cc2ccccc2)NC(C)=O)C(N)=O)c1 [Compound 300, Ac-Phe-Orn-Pro-hle-Pff-Mmy-NH2] (Ac-F[Orn]P[d(hLeu)][Phe(4-F)][Phe(3-OMe)]-NH2) | 50 to 200 nM
O=C(N[C@@H](Cc1ccccc1)C(=O)N[C@H]1CCCNC(=O)[C@H](Cc2ccccc2)NC(=O)[C@H](Cc2c[nH]c3ccccc23)NC(=O)[C@@H](CC2CCCCC2)NC(=O)[C@@H]2C[C@@H](O)CN2C1=O)c1cccnc1 [Compound 326, Fbn-Phe-[Orn-Hyp-cha-Trp-Phe]] (Nicotinoyl-F[Orn][Hyp][dCha]WF; lactam 2-C) | 50 to 200 nM
CC(=O)N[C@@H](Cc1ccccc1)C(=O)N[C@@H](CCCCN)C(=O)N[C@@H](C)C(=O)N[C@@H](CC1CCCCC1)C(=O)N[C@@H](C)C(=O)N[C@@H](CC(C)C)C(=O)N[C@H](C)C(=O)N[C@@H](Cc1ccc(O)cc1)C(=O)O [compound 60] (Ac-FKA[Cha]AL[dA]Y-OH) | 200 to 2000 nM
CC(=O)N[C@@H](Cc1ccccc1)C(=O)N[C@H]1CCCNC(=O)[C@H](CCCCNC(N)=O)NC(=O)[C@H](Cc2c[nH]c3ccccc23)NC(=O)[C@@H](CC2CCCCC2)NC(=O)[C@@H]2CCCN2C1=O [compound 13] (Ac-F[Orn]P[dCha]W[hCit]; lactam 2-C) | 200 to 2000 nM
CC(=O)N[C@@H](Cc1ccccc1)C(=O)N[C@@H](CCCN)C(=O)N1CCC[C@H]1C(=O)N[C@@H](C(=O)N[C@@H](Cc1c[nH]c2ccccc12)C(=O)N[C@@H](Cc1ccccc1)C(N)=O)C1CCCCC1 [Compound 109, Ac-Phe-Orn-Pro-chg-Trp-Phe-NH2] (Ac-F[Orn]P[dChg]WF-NH2) | 50 to 200 nM
CC(C)CC[C@H]1NC(=O)[C@@H]2C[C@@H](O)CN2C(=O)[C@@H](NC(=O)[C@@H](N)Cc2ccccc2)CCCNC(=O)[C@H](CC(C)C)NC(=O)[C@H](Cc2ccc(F)cc2)NC1=O [Compound 364, H-Phe-[Orn-Hyp-hle-Pff-Leu]] (H-F[Orn][Hyp][d(hLeu)][Phe(4-F)]L; lactam 2-C) | 50 to 200 nM
NCCC[C@H](NC(=O)[C@@H](N)Cc1ccccc1)C(=O)N1CCC[C@H]1C(=O)N[C@H](CC1CCCCC1)C(=O)N[C@@H](Cc1c[nH]c2ccccc12)C(=O)N[C@@H](Cc1ccccc1)C(N)=O [Compound 74, H-Phe-Orn-Pro-cha-Trp-Phe-NH2] (H-F[Orn]P[dCha]WF-NH2) | 50 to 200 nM
CC(=O)N[C@@H](CO)C(=O)N[C@@H](Cc1ccccc1)C(=O)N[C@@H](CCCN)C(=O)N1CC[C@H]1C(=O)N[C@H](CC1CCCCC1)C(=O)N[C@@H](Cc1csc2ccccc12)C(=O)N[C@@H](Cc1ccccc1)C(N)=O [Compound 139, Ac-Ser-Phe-Orn-Aze-cha-Bta-Phe-NH2] (Ac-SF[Orn][Aze][dCha][Bta]F-NH2) | 50 to 200 nM
CCCC[C@@H]1NC(=O)[C@H](Cc2ccc(F)cc2)NC(=O)[C@@H](CCC(C)C)NC(=O)[C@@H]2C[C@@H](O)CN2C(=O)[C@@H](NC(=O)[C@@H](N)Cc2ccccc2)CCCNC1=O [Compound 365, H-Phe-[Orn-Hyp-hle-Pff-Nle]] (H-F[Orn][Hyp][d(hLeu)][Phe(4-F)][Nle]; lactam 2-C) | 50 to 200 nM
CC(=O)N[C@@H](Cc1ccccc1)C(=O)N[C@@H](Cc1ccc(N)cc1)C(=O)N1CCC[C@H]1C(=O)N[C@H](CC1CCCCC1)C(=O)N[C@@H](Cc1csc2ccccc12)C(=O)N[C@@H](Cc1ccccc1)C(N)=O [Compound 127, Ac-Phe-Paf-Pro-cha-Bta-Phe-NH2] (Ac-F[Phe(4-NH2)]P[dCha][Bta]F-NH2) | 200 to 2000 nM
CC(=O)N[C@@H](Cc1ccccc1)C(=O)N[C@@H](CCCN)C(=O)N1CCC[C@H]1C(=O)N[C@H](CCC(C)C)C(=O)N[C@@H](Cc1cccc(Cl)c1)C(=O)N[C@@H](Cc1ccc(F)cc1)C(N)=O [Compound 290, Ac-Phe-Orn-Pro-hle-Mcf-Pff-NH2] (Ac-F[Orn]P[d(hLeu)][Phe(3-Cl)][Phe(4-F)]-NH2) | 50 to 200 nM
CC(=O)N[C@@H](Cc1ccccc1)C(=O)N[C@H]1CSSC[C@@H](C(N)=O)NC(=O)[C@H](Cc2ccccc2)NC(=O)[C@H](Cc2csc3ccccc23)NC(=O)[C@@H](CC2CCCCC2)NC(=O)[C@@H]2CCCN2C1=O [Compound 172, Ac-Phe-[Cys-Pro-cha-Bta-Phe-Cys]-NH2] (Ac-FCP[dCha][Bta]FC-NH2; disulfide 2-7) | 50 to 200 nM
CCCC[C@@H]1NC(=O)[C@H](Cc2ccc(F)cc2)NC(=O)[C@@H](CC2CCCCC2)NC(=O)[C@@H]2CCCN2C(=O)[C@@H](NC(=O)[C@H](Cc2ccccc2)NC(C)=O)CCCNC1=O [Compound 186, Ac-Phe-[Orn-Pro-cha-Pff-Nle]] (Ac-F[Orn]P[dCha][Phe(4-F)][Nle]; lactam 2-C) | 50 to 200 nM
O=C(NCC(O)CO)N[C@@H](Cc1ccccc1)C(=O)N[C@H]1CCCNC(=O)[C@H](Cc2ccccc2)NC(=O)[C@H](Cc2c[nH]c3ccccc23)NC(=O)[C@@H](CC2CCCCC2)NC(=O)[C@@H]2C[C@@H](O)CN2C1=O (stereo partly drawn) [Compound 336, Fhb-[Phe-Orn-Hyp-cha-Trp-Phe]] ({NHCH2CH(OH)CH2OH-CO}-F[Orn][Hyp][dCha]WF; lactam 2-C) | 50 to 200 nM
COc1ccc(CCN(CC(=O)N[C@H](CC2CCCCC2)C(=O)N[C@@H](Cc2csc3ccccc23)C(=O)N[C@@H](Cc2ccccc2)C(N)=O)C(=O)[C@H](CCCN)NC(=O)[C@H](Cc2ccccc2)NC(C)=O)cc1OC [Compound 242, Ac-Phe-Orn-G31-cha-Bta-Phe-NH2] (Ac-F[Orn][N(3,4-(MeO)2phenethyl)Gly][dCha][Bta]F-NH2) | 50 to 200 nM
CC(=O)N[C@@H](Cc1ccccc1)C(=O)N[C@H]1CCCNC(=O)[C@H](Cc2ccccc2)NC(=O)[C@H](Cc2ccc(F)cc2)NC(=O)[C@@H](CCC(C)C)NC(=O)[C@@H]2CCCN2C1=O [Compound 198, Ac-Phe-[Orn-Pro-hle-Pff-Phe]] (Ac-F[Orn]P[d(hLeu)][Phe(4-F)]F; lactam 2-C) | 50 to 200 nM
CC(=O)N[C@@H](Cc1ccccc1)C(=O)N[C@@H](CCCN)C(=O)N1CCC[C@H]1C(=O)N[C@H](CC1CCCCC1)C(=O)N[C@@H](Cc1csc2ccccc12)C(=O)N[C@@H](Cc1ccc(Cl)cc1)C(N)=O [Compound 259, Ac-Phe-Orn-Pro-cha-Bta-Pcf-NH2] (Ac-F[Orn]P[dCha][Bta][Phe(4-Cl)]-NH2) | 20 to 50 nM
CC(=O)N[C@@H](Cc1ccccc1)C(=O)N[C@H]1CCCNC(=O)[C@H](CCCNC(N)=O)NC(=O)[C@H](Cc2c[nH]c3ccccc23)NC(=O)[C@@H](CC2CCCCC2)NC(=O)[C@@H]2CCCN2C1=O [Compound 10, Ac-Phe-[Orn-Pro-cha-Trp-Cit], reference compound] | 200 to 2000 nM
CC(=O)N[C@@H](Cc1ccccc1)C(=O)N[C@@H](CCCNC(N)=O)C(=O)N[C@@H](CO)C(=O)N[C@H](CCC(C)C)C(=O)N[C@@H](Cc1csc2ccccc12)C(=O)N[C@@H](Cc1ccccc1)C(N)=O [Compound 212, Ac-Phe-Cit-Ser-hle-Bta-Phe-NH2] (Ac-F[Cit]S[d(hLeu)][Bta]F-NH2) | 50 to 200 nM
CCCC[C@@H]1NC(=O)[C@H](Cc2c[nH]c3ccccc23)NC(=O)[C@@H](CCC(C)C)NC(=O)[C@@H]2CCCN2C(=O)[C@@H](NC(=O)[C@H](Cc2ccccc2)NC(C)=O)CCCNC1=O [Compound 199, Ac-Phe-[Orn-Pro-hle-Trp-Nle]] (Ac-F[Orn]P[d(hLeu)]W[Nle]; lactam 2-C) | 20 to 50 nM
COCCOCCOCC(=O)N[C@@H](Cc1ccccc1)C(=O)N[C@H]1CCCNC(=O)[C@H](Cc2ccccc2)NC(=O)[C@H](Cc2c[nH]c3ccccc23)NC(=O)[C@@H](CC2CCCCC2)NC(=O)[C@@H]2C[C@@H](O)CN2C1=O [Compound 337, Fhi-Phe-[Orn-Hyp-cha-Trp-Phe]] ({Decanoyl(3,6,9-trioxa)}-F[Orn][Hyp][dCha]WF; lactam 2-C) | 50 to 200 nM
CC(=O)N[C@@H](Cc1ccccc1)C(=O)N[C@H]1CCCNC(=O)[C@H](Cc2ccc(O)cc2)NC(=O)[C@H](Cc2c[nH]c3ccccc23)NC(=O)[C@@H](CC2CCCCC2)NC(=O)[C@@H]2CCCN2C1=O [Compound 146, Ac-Phe-[Orn-Pro-cha-Trp-Tyr]] (Ac-F[Orn]P[dCha]WY; lactam 2-C) | 20 to 50 nM

Same assay, conditions: functional assay of example 11; noteworthy = IC50 less than 200 nM

Compound | inhibitory activity (in words)
CSCC[C@@H]1NC(=O)[C@H](Cc2c[nH]c3ccccc23)NC(=O)[C@@H](CC2CCCCC2)NC(=O)[C@@H]2CCCN2C(=O)[C@@H](NC(=O)[C@H](Cc2ccccc2)NC(C)=O)CCCNC1=O [Compound 29, Ac-Phe-[Orn-Pro-cha-Trp-Met]] (Ac-F[Orn]P[dCha]WM; lactam 2-C) | without significant loss of activity
Ac-Phe-[Orn-Hyp(CONHCH2COH(OH)CH2OH)-cha-Trp-Phe] | noteworthy inhibitory activity

Same assay, conditions: functional assay of example 11; noteworthy = IC50 less than 200 nM; listed as Ac-Phe-[Orn-Pro-cha-Trp-Met]

Compound | inhibitory activity (in words)
CSCC[C@@H]1NC(=O)[C@H](Cc2c[nH]c3ccccc23)NC(=O)[C@@H](CC2CCCCC2)NC(=O)[C@@H]2CCCN2C(=O)[C@@H](NC(=O)[C@H](Cc2ccccc2)NC(C)=O)CCCNC1=O [Compound 29, Ac-Phe-[Orn-Pro-cha-Trp-Met]] (Ac-F[Orn]P[dCha]WM; lactam 2-C) | noteworthy inhibitory activity
